Laboratory results taken from PubChem BioAssay (NCI).
“And” between values parts separate entries of the source, which are not always exact repeats. Identical values can stand only once.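 48-hour exposure; five concentrations; linearly interpolated endpoints. GI50 marks 50% less growth. The concentration for full growth arrest is given as TGI.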

Key:
Assay in all cases: NCI tumour cell line growth inhibition, 48 h
SN12C renal = system: SN12C renal
IGROV1 ovarian = system: IGROV1 ovarian
EKVX NSCLC = system: EKVX NSCLC
A549 NSCLC = system: A549 NSCLC
U251 CNS = system: U251 CNS
NCI-H522 lung = system: NCI-H522 lung
HS 578T breast = system: HS 578T breast
OVCAR-8 ovarian = system: OVCAR-8 ovarian

| Compound | GI50 (SN12C renal) | TGI (SN12C renal) | GI50 (IGROV1 ovarian) | TGI (IGROV1 ovarian) | GI50 (EKVX NSCLC) | TGI (EKVX NSCLC) | GI50 (A549 NSCLC) | TGI (A549 NSCLC) | GI50 (U251 CNS) | TGI (U251 CNS) | GI50 (NCI-H522 lung) | TGI (NCI-H522 lung) | GI50 (HS 578T breast) | TGI (HS 578T breast) | GI50 (OVCAR-8 ovarian) | TGI (OVCAR-8 ovarian) |
| --- | --- | --- | --- | --- | --- | --- | --- | --- | --- | --- | --- | --- | --- | --- | --- | --- |
| O=C(O)c1nc(NCc2nc3cc(Cl)ccc3o2)n[nH]1 | > 100 µM | > 100 µM | > 100 µM | > 100 µM | > 100 µM | > 100 µM | > 100 µM | > 100 µM | > 100 µM | > 100 µM | > 100 µM | > 100 µM | > 100 µM | > 100 µM | > 100 µM | > 100 µM |
| O=S(=O)(Nc1ccc(Br)cc1)c1ccc(-c2cnc(C3CC3)o2)cc1 | 4.41 µM | 18.2 µM | 2.57 µM | 15.8 µM | 3.39 µM | 17.5 µM | 3.85 µM | 22.5 µM | 3.31 µM | 18.2 µM | 0.855 µM | 12.9 µM | 1.38 µM | 6.17 µM | 4.16 µM | 20.4 µM |
| N=C1C(O)C2(I)c3ccccc3N3C(=N)C(O)C4c5ccccc5N1C4C32 (stereo not given) | – | > 100 µM | – | > 100 µM | – | > 100 µM | – | > 100 µM | – | 43.9 µM | – | > 100 µM | – | > 100 µM | – | > 100 µM |
| CC1=C([Se]CC(OC(=O)CC[Se]c2ccccc2)C(=O)NC(C)(C)C)C(=O)c2ccccc2C1=O (stereo not given) | 1.67 µM | 3.13 µM | 1.53 µM | 2.94 µM | 1.73 µM | 3.8 µM | 1.63 µM | 3.61 µM | 1.14 µM | 3.77 µM | 1.67 µM | 3.34 µM | – | – | 1.77 µM | 3.27 µM |
| c1ccc(C2ONC3=NCCN32)cc1 (stereo not given) | – | – | 31.2 µM | > 100 µM | > 100 µM | > 100 µM | 51.1 µM | > 100 µM | 55 µM | > 100 µM | 44.5 µM | > 100 µM | – | – | 44.6 µM | > 100 µM |
| C=C1CCC2C3(C)COC(C)(C)OC3CCC2(C)C1C/C=C1/C(=O)OCC1OC(C)=O (stereo not given) | 5.95 µM | 22.6 µM | 2.03 µM | 6.84 µM | 9.5 µM | 24.4 µM | 3.5 µM | 12.8 µM | 2.69 µM | 9.31 µM | 0.476 µM | 2 µM | 2.75 µM | 9.59 µM | 2.18 µM | 6.8 µM |
| C=CCc1c(Cl)nc(Cl)nc1Cl | – | 1.46 µM | – | 1.36 µM | – | 2.58 µM | – | 5.91 µM | – | 1.74 µM | – | 0.19 µM | – | 4.14 µM | – | 1.32 µM |
| CN1CCN(C(=S)N(C)C(=O)c2ccco2)CC1 | – | > 100 µM | – | > 100 µM | – | – | – | > 100 µM | – | > 100 µM | – | > 100 µM | – | > 100 µM | – | > 100 µM |
| Cn1ncc(-c2ccc3c(=O)[nH]nc(CN)c3c2)c1-c1c(F)c(Cl)cc(OC2CC2)c1C#N | 13.5 µM and 11.8 µM | 28.7 µM and 25.3 µM | 14.2 µM and 11.6 µM | 30.1 µM and 24.6 µM | 14.9 µM and 14 µM | 30.5 µM and 29.6 µM | 15.8 µM and 15.4 µM | 33.9 µM and 32.2 µM | 14.9 µM and 13.7 µM | 29.5 µM and 27.5 µM | 12.7 µM and 9.22 µM | 27.4 µM and 23.1 µM | 12.4 µM and 11 µM | 33.8 µM and 29.9 µM | 13.9 µM and 13.7 µM | 27.4 µM and 27.1 µM |
| N#CC(C#N)=C/C=C(\Cl)c1ccc(Cl)cc1 | 4.52 µM | 26.7 µM | 7.46 µM | 32 µM | 23.8 µM | 55.4 µM | 17.4 µM | 39.3 µM | 6.9 µM | > 43.7 µM | 5.81 µM | > 49.6 µM | 7.47 µM | 26.3 µM | 10.1 µM | 31.4 µM |
| C1CSCCCSCCCSCCCSCCCSCCCSCCCSCCCSC1 | – | > 100 µM | – | > 100 µM | – | > 100 µM | – | > 100 µM | – | > 100 µM | – | > 100 µM | – | > 100 µM | – | > 100 µM |
| O=C(c1ccc2ccccc2c1)c1c(C(F)(F)F)n([O-])c2ccc(C(F)(F)F)cc2[n+]1=O | 1.39 µM | 3.3 µM | 0.27 µM | 0.815 µM | 1.54 µM | 3.2 µM | 1.68 µM | 3.48 µM | 0.302 µM | 0.742 µM | 0.505 µM | 1.09 µM | 1.44 µM | 3.97 µM | 0.727 µM | 2.45 µM |
| CC(CO)Nc1cc(-c2[nH]c3cccnc3c2-c2ccc(F)cc2)ccn1 (stereo not given) | 15.1 µM | > 25 µM | 6.77 µM | > 25 µM | – | – | 8.47 µM | > 25 µM | 15.4 µM | > 25 µM | > 25 µM | > 25 µM | 16.8 µM | > 25 µM | 15.7 µM | > 25 µM |
| COc1ccc(C2=Nn3c(nnc3-c3cc(Cl)cc(Cl)c3Cl)SC2)cc1 | 1.54 µM | > 100 µM | 0.339 µM | 3.59 µM | 0.622 µM | > 46.1 µM | 0.631 µM | > 37.4 µM | 0.412 µM | 24.7 µM | 0.256 µM | 2.51 µM | 0.376 µM | 13.6 µM | 0.862 µM | > 40.7 µM |
| CN(C)CCNC(=O)Cn1ccc(=O)c2cc([N+](=O)[O-])ccc21 | – | > 100 µM | – | > 100 µM | – | > 100 µM | – | > 100 µM | – | > 100 µM | – | > 100 µM | – | > 100 µM | – | – |
| CNC(=S)Nc1ccc(OC)c2ccccc12 | – | > 10 µM | – | > 10 µM | – | – | – | > 10 µM | – | > 10 µM | – | > 10 µM | – | > 10 µM | – | > 10 µM |
| Cc1ccc2cnc(N)c(C#Cc3cc(C(=O)Nc4ccc(CN5CCN(C)CC5)c(C(F)(F)F)c4)cnc3C)c2c1 | 0.317 µM | 1.06 µM | 0.128 µM | 0.712 µM | 0.679 µM | 1.53 µM | – | – | 0.803 µM | 1.87 µM | 0.588 µM | 1.36 µM | 0.901 µM | 2.76 µM | 1.11 µM | 3.85 µM |
| COc1cccc(-c2nc3cc(NC(=O)c4ccc(Cl)c(C#N)c4)ccc3o2)c1 | 3.1 µM | > 100 µM | 7.55 µM | > 100 µM | – | – | 1.88 µM | 3.8 µM | – | – | 1.68 µM | 4.54 µM | 8.89 µM | > 100 µM | – | – |
| CCOc1ccccc1CCN=C1NC(=O)/C(=C/c2ccc3ncccc3c2)S1 | 1.61 µM | > 25 µM | 1.47 µM | 15 µM | – | – | 1.23 µM | > 25 µM | 1.2 µM | > 25 µM | 0.676 µM | 3.49 µM | 2.76 µM | > 7.14 µM | 3.08 µM | > 25 µM |
